Test results published in patent US20250082611A1, “DOSING REGIMEN FOR AN NLRP3 INHIBITOR IN THE TREATMENT OF OSTEOARTHRITIS” (Novartis AG, priority 2021, published 2025).

Legend:
CYP3A = assay: In vitro metabolism studies, CYP3A induction and substrate; assay type: in vitro ADME
Excerpt: Therefore, investigators, at their discretion, may administer concomitant medications known to be metabolized by CYP3A4/5. Patients receiving such medications may require dose titration or increase of the concomitant drug. […] Investigators may, at their discretion, co-administer known inhibitors of CYP3A, but their duration should be kept as short as possible, and patients must be closely monitored.

[1] = First-in-human study: safety and tolerability in healthy subjects; assay type: in vivo
Excerpt: The study design comprised of 4 parts: single ascending dose (SAD; Part A), relative bioavailability of tablet formulations (Part B), multiple ascending dose (MAD; Part C), and relative bioavailability and food effect (Part D) (FIG. 2; RF=Reference Formulation (crystalline suspension); T2=Test Formulation 2 (crystalline tablet); T3=Test Formulation 3 (spray-dried dispersion suspension); T4=Test Formulation 4 (encapsulated crystalline tablet)). In each group of Parts A and C, 8 subjects were randomized in a 3:1 ratio to receive Compound IA (6 subjects) or matching placebo (2 subjects).
For Part A, eight cohorts of eight eligible subjects were enrolled. Each subject received a single oral dose of Compound IA (3, 10, 30, 100, 300 mg of crystalline suspension and 100, 300, 600 mg of spray-dried dispersion (SDD) under fasted conditions. As this was a FIH study, two sentinel subjects were dosed first, at least 24 hours before the rest of the cohort was dosed, to assure maximum safety. Part B was skipped because the data from Part A provided for an adequate comparison of crystalline and SDD formulations.
For part C, eligible subjects were enrolled in six different cohorts. […] Subjects were dosed in Part C following review available safety, tolerability and PK data from preceding groups in Part A.
Safety assessments in all parts of the study included adverse event (AE) reporting using the Medical Dictionary for Regulatory Activities (version 22.1), clinical laboratory tests (biochemistry, hematology, and urinalysis), vital signs, electrocardiograms (ECGs), physical examination and skin biopsy (as applicable).

in vivo = conditions: cynomolgus monkey
Protocol: The safety of the treatment period is supported by 13-week GLP toxicology studies in rat and cynomolgus monkey. […] Safety margins for COMPOUND IA dosed at 25 mg b.i.d. based on 13-week GLP toxicology studies: […]

[2] = test system: ex-vivo stimulated IL-1β release in whole blood; assay: First-in-human study: ex-vivo LPS stimulation of whole blood, IL-1β release (PD); assay type: cell-based
Protocol: To determine the PD response to NLRP3 inhibition, whole blood samples were collected for exploratory PD analysis (Part A and Groups 1-3 of Part C). An ex-vivo stimulation by activating the NLRP3 inflammasome with lipopolysaccharide (LPS) was evaluated compared to control conditions, followed by analysis of blood cell release of the inflammatory marker IL-1β.
Combined individual and mean plots of the individual IL-1β concentrations versus time are presented by treatment. Modeling of Compound IA effects on a corrected, stimulated ex vivo Lipopolysaccharide (LPS) challenge in whole blood included evaluation of the relationship between LPS challenge results by conditionally weighted residual modeling.

[3] = fractional Emax model with Hill coefficient

SMILES: CC(C)(O)c1ncc([S@](N)(=O)=NC(=O)Nc2c3c(cc4c2CCC4)CCC3)s1 [Compound IA, (R)-N′-((1,2,3,5,6,7-hexahydro-s-indacen-4-yl)carbamoyl)-2-(2-hydroxypropan-2-yl) thiazole-5-sulfonimidamide]
- CYP3A substrate status (CYP3A): substrate of CYP3A
- induction of metabolism of CYP3A substrates (CYP3A): might have the potential to induce
- subjects with TEAEs considered related to study drug ([1]; 21/94 who received Compound IA): 22%
- subjects reporting treatment emergent adverse events (TEAEs) ([1]; Compound IA arm, 66/94 subjects): 70%
- skin rash ([1]; dosed once daily with 30, 100, and 200 mg): skin rashes have been observed in some participants
- dose relation of maculopapular and/or pruritic skin rashes ([1]; human, in vivo): most frequently reported at the higher multiple dose levels
- intensity of skin rash/pruritus TEAEs ([1]; human, in vivo): mild to moderate
- subjects with mild, non-clinically significant decrease in neutrophil and leukocyte counts ([1]; human, in vivo): 27 subjects
- vital signs, 12-lead ECG, 24-hour Holter monitoring, physical examination ([1]; human, in vivo): No other clinically relevant findings
- subjects with skin rash and/or pruritus ([1]; multiple dose 30 mg QD): 2 n
- subjects with skin rash and/or pruritus ([1]; multiple dose 50 mg BID): 3 n
- subjects with skin rash and/or pruritus ([1]; multiple dose 100 mg QD): 3 n
- subjects with skin rash and/or pruritus ([1]; multiple dose 200 mg QD): 2 n
- neutrophil and leukocyte counts ([1]; non-clinically significant, occasionally noted): Mild decreases
- subjects with TEAEs of maculopapular skin rash and/or pruritus (adverse events of special interest) ([1]; of 122 enrolled, all received Compound IA): 12 subjects
- tolerability ([1]; single and multiple oral doses, healthy subjects): generally well tolerated
- subjects with skin rash and/or pruritus ([1]; single dose 100 mg): 1 n
- subjects with skin rash and/or pruritus ([1]; single dose 600 mg): 1 n
- deaths or serious adverse events ([1]; whole study): No deaths or serious adverse events (SAEs) were reported
- Exposure multiples MONKEY NOAEL based on AUC0-24 h (in vivo): 49
- Exposure multiples MONKEY NOAEL based on Cmax (in vivo): 66
- NOAEL at 13 weeks (in vivo): 150 mg/kg/day
- Exposure multiples MONKEY NOAEL based on AUC0-24 h (in vivo; 25 mg): 61
- Exposure multiples MONKEY NOAEL based on Cmax (in vivo; 25 mg): 82
- IC90 ([2]; Homo sapiens, LPS challenge, median, 90% CI 2.84, 3.54, read-out: IC90, inhibiting 90% of ex-vivo stimulated IL-1β release): 3.18 µM
- IC50 ([2]; Homo sapiens, relative to 100% inhibition, 90% CI 0.118, 0.179): 0.146 µM
- EC50 ([2]; Homo sapiens, relative to estimated maximum effect, 90% CI 0.114, 0.171): 0.141 µM
- EC90 ([2]; Homo sapiens, relative to estimated maximum effect, 90% CI 2.24, 2.94): 2.57 µM
- Emax of IL-1β, arithmetic mean (±SD) [2, 3]: −0.985 (±0.00277)
- observed stimulation effect of IL-1β, arithmetic mean (±SD) [2, 3]: 1820 (±102) ng/L
- time after dosing from which inhibition of IL-1β was observed ([2]; most dose levels): 1 h
- concentrations of IL-1β with increasing doses ([2]; single and multiple oral doses): dose-dependent decreases
